Measured values as given in patent publication US20110020312A1, “METHODS FOR TREATMENT OF METABOLIC DISORDERS USING EPIMETABOLIC SHIFTERS, MULTIDIMENSIONAL INTRACELLULAR MOLECULES, OR ENVIRONMENTAL INFLUENCERS” (priority 2009, published 2011).

Assays:
[1] = system: melanoma cell; experiment: Bcl2 level after CoQ-10 in the presence of VEGF; format: cell-based
[2] = system: Hif1 alpha; experiment: Western blot, Hif1 alpha levels; format: cell-based, human; conditions: for Hif1 alpha Lower Band Normalized Volume: HASMC
Description: The Actin blots were stripped by incubating for 30 minutes with methanol, followed by two 10 minute washes with TBS-T, then 30 minutes of incubation with Stripping buffer at 50 deg C., and followed by two washes with 100 ml or more of TBS-T for 30′ each. The blots were scanned in laser scanner to check for complete stripping. The blots were activated with methanol for 5 seconds, washed with water for 5 minutes, and TBST for 15 minutes. The blots were blocked for 1 hour with 5% blocking reagent in TBS-T at room temperature and then washed 3 times with TBS-T (1×-15′; 2×5′ each) and probed with the primary antibody for Hif 1 alpha, Caspase 3 or PDHB in 5% BSA (at 1:200 by incubation overnight at 4 deg C. with gentle shaking. The primary antibody for Hif 1 alpha (Abcam ab2185; antirabbit) was at 1:500 dilution in 5% BSA. The primary antibody for Caspase 3 (Santacruz sc7272; antirabbit) was at 1:200 dilution in 5% BSA. The primary antibody for Pyruvate Dehydrogenase beta (PDHB) (Novus Biologicals H00005162-M03; antimouse) was at 1:500 dilution in 5% BSA. After incubation with primary antibodies, the membranes were washed 3 times with TBS-T (1×-15′; 2×5′ each) and probed with the secondary antibody (PDHB antimouse; Hif 1a and Caspase 3 antirabbit; 1:10,000 dilution) for 1 h at room temperature. After 1 h of incubation with secondary antibodies, the blots were washed 3 times with TBS-T (1×-15′; 2×5′ each) and then incubated with ECF reagent for 5 minutes and then each blot scanned with 5100 Fuji Laser scanner at 25 uM resolution, 16 bit, green laser, at 400V and at 500 V.
The above blots were stripped by incubating for 30 minutes with methanol, followed by two 10 minute washes with TBS-T, then 30 minutes of incubation with Stripping buffer at 50 deg C., and followed by two washes with 100 ml or more of TBS-T for 30′ each. The blots were activated with methanol for 5 seconds, washed with water for 5 minutes, and TBST for 15 minutes. The blots are blocked for 1 hour with 5% blocking reagent in TBS-T at room temperature and then washed 3 times with TBS-T (1×-15′; 2×5′ each) and probed with the primary antibody for Transaldolase or Hifla in 5% BSA by incubation overnight at 4 deg C. with gentle shaking. The primary antibody for Transaldolase (Abcam ab67467; antimouse) was at 1:500 dilution. The primary antibody for Hifla (Abcam ab2185; antirabbit) was at 1:500 dilution. After incubation with primary antibodies, the membranes were washed 3 times with TBS-T (1×-15′; 2×5′ each) and probed with the secondary antibody (antimouse or antirabbit; 1:10,000 dilution) for 1 h on the orbital tilting shaker at room temperature. After 1 h of incubation with secondary antibodies, the blots were washed 3 times with TBS-T (1×-15′; 2×5′ each) and then incubated with ECF reagent for 5 minutes and then each blot scanned with 5100 Fuji Laser scanner at 25 uM resolution, 16 bit, green laser, at 400 & 500V.

[3] = system: HAEC, MCF-7, HepG2 and PC-3 cell lines; experiment: OCR and ECAR in other normal and cancer cell lines (data not shown); format: cell-based; conditions: absence and/or presence of stressors (hyperglycemia, hypoxia, lactic acid)
Description: A similar comparison of OCR and ECAR values (data not shown) were determined in numerous other normal and cancer cells lines, including: HAEC (normal human aortic endothelial cells), MCF-7 (breast cancer), HepG2 (liver cancer) and highly metastatic PC-3 (prostate cancer) cell lines. […] Thus, the overall effect of CoQ10 in the treatment of cancer, including cell death, is an downstream effect of its collective influence on proteomic, genomic, metabolomic outcomes in concert with shifting of the cellular bioenergetics from glycolysis to mitochondrial OXPHOS.

[4] = system: SK-MEL-28 mitochondria; experiment: LC-MS/MS quantification of Q10, Q10H2 and Q9 in mitochondrial enriched samples; format: cell-based; conditions: for Q10 in mitochondrial enriched sample: 100 μM Q10 in the media; for increase in mitochondrial Q10 levels: 100 μM Q10
Description: To control for sample variance in total material, the levels of cholesterol was also measured to confirm that the differences were not due to sample size errors.

[5] = rats, oral; cited from earlier work

COC1=C(OC)C(=O)C(C/C=C(\C)CC/C=C(\C)CC/C=C(\C)CC/C=C(\C)CC/C=C(\C)CC/C=C(\C)CC/C=C(\C)CC/C=C(\C)CC/C=C(\C)CCC=C(C)C)=C(C)C1=O [Q10, Coenzyme Q10]
level of Bcl2 [1]: decreased level
Hif1 alpha Lower Band Normalized Volume ([2]; 5g48-50): 21664
Hif1 alpha Lower Band Normalized Volume ([2]; 5g48-100): 19540
Hif1 alpha Lower Band Normalized Volume ([2]; 22G24-50): 18486
Hif1 alpha Lower Band Normalized Volume ([2]; 22G24-100): 17919
Hif1 alpha Lower Band Normalized Volume ([2]; 22G48-50): 17496
Hif1 alpha Lower Band Normalized Volume ([2]; 22G48-100): 23111
Hif1 alpha Upper Band Normalized Volume ([2]; HepG2, 5g24-50): 8998
Hif1 alpha Upper Band Normalized Volume ([2]; HepG2, 5g24-100): 9315
Hif1 alpha Upper Band Normalized Volume ([2]; HepG2, 5g48-50): 8601
Hif1 alpha Upper Band Normalized Volume ([2]; HepG2, 5g48-100): 10192
Hif1 alpha Upper Band Normalized Volume ([2]; HepG2, 22G24-50): 14089
Hif1 alpha Upper Band Normalized Volume ([2]; HepG2, 22G24-100): 8530
Hif1 alpha Upper Band Normalized Volume ([2]; HepG2, 22G48-50): 9416
Hif1 alpha Upper Band Normalized Volume ([2]; HepG2, 22G48-100): 5608
Hif1 alpha protein levels ([2]; mitochondrial preparations of cancer cells): decreased
Hif1a lower band ([2]; whole cell lysates of normal cells): decrease
OCR and ECAR values [3]: shift in OCR and ECAR values representative of values observed in a normal cells
Q10 in mitochondrial enriched sample ([4]; 6 hr): 7.21 ng/Sample
increase in mitochondrial Q10 levels ([4]; 19 hours): ~3 fold
Q10 in mitochondrial enriched sample ([4]; 19 hr): 16.77 ng/Sample
increase in mitochondrial Q10 levels ([4]; 48 hour): ~6 fold
Q10 in mitochondrial enriched sample ([4]; 48 hr): 46.63 ng/Sample
form of Q10 in mitochondria ([4]; exogenous Q10 added to media): maintained in the supplied oxidized form
orally-administered CoQ10 absorbed [5]: 2-3%
